How the values were obtained:
[1] = Absorbability test in dog; type: in vivo; conditions: fasted male beagle, ranitidine pretreated, oral 10 mg/body in 0.5% methyl cellulose, plasma; for AUC(0-t): read-out: AUC0-24 h
Description: Ranitidine (2.5 mg/kg) was intramuscularly injected to the posterior region of thigh of a fasted male beagle (body weight: about 10 kg, n=6) to make the intragastric pH acidic 30 minutes before, immediately before and 30 minutes after administration of the test compound. The test compound was suspended in a 0.5% methyl cellulose solution at a dose of 10 mg/body and orally administered. About 3 ml of blood was collected from the median antebrachial vein using a heparin-treated glass syringe 0.5, 1, 2, 3, 4, 6, 8 and 24 hours after the administration. The collected blood was centrifuged to obtain plasma which was cryopreserved at −20° C. until measurement of the concentration of the test compound. One hundred μl of thawed plasma was mixed with 300 μl of an internal standard solution [a methanol solution of the d3-compound (Ia), 5 ng/ml] and centrifuged. The supernatant was filtered through a filter and the filtrate was analyzed by LC/MS/MS.
A calibration curve was prepared by the same operation as above using each 100 μl of a calibration curve standard solution [a methanol solution of the compound (Ia), 0.5-400 ng/ml] which had been adjusted to respective concentrations in place of 100 μl of dog plasma.
The LC/MS/MS analysis conditions are shown below.
The area under the concentration in plasma-time curve (AUC0-24h) and the maximum concentration in plasma (Cmax) as pharmacokinetic parameters indicative of drug absorbability were calculated from the results obtained according to the aforementioned method using the compounds of Example 1, Example 2 (2C) and Comparative Example 4 as test compounds.

[2] = Thermal stability test (residual rate of compound (I) by HPLC); type: physicochemical
Description: The test compound was placed in a glass bottle and allowed to stand under the following conditions (1) and (2).
(1): Closed state, 60° C.;
The measurement conditions in high performance liquid chromatography are as follows.
Column: L-column ODS [4.6 mm×250 mm, manufactured by Chemicals Evaluation and Research Institute, Japan]
Column temperature: 40° C.
Detection wavelength: 220 nm
The residual rate (%) was calculated by the following formula.
The residual rate (%)=[1−(sum of peak area percentages of impurities and decomposed products)]×100

[3] = Condition (1): closed state, 60° C., 1 month
[4] = Condition (1): closed state, 60° C., time 0
[5] = Condition (2): non-closed state, 40° C., humidity 75%, 1 month
[6] = Condition (2): non-closed state, 40° C., humidity 75%, 1 week
[7] = Condition (2): non-closed state, 40° C., humidity 75%, time 0
[8] = Condition (1): closed state, 60° C., 1 week
[9] = Condition (1): closed state, 60° C., 3 months

| Molecule | Cmax [1] | AUC(0-t) [1] | Residual rate of Compound (I) (%) [2, 3] | Residual rate of Compound (I) (%) [2, 4] | Residual rate of Compound (I) (%) [2, 5] | Residual rate of Compound (I) (%) [2, 6] | Residual rate of Compound (I) (%) [2, 7] | Residual rate of Compound (I) (%) [2, 8] | Residual rate of Compound (I) (%) [2, 9] | also measured |
| --- | --- | --- | --- | --- | --- | --- | --- | --- | --- | --- |
| Br.Br.CC1=C(C(=O)OC(C)C)[C@@H](c2cccc([N+](=O)[O-])c2)C(C(=O)OC2CN(C(c3ccccc3)c3ccccc3)C2)=C(N)N1.O.O [Example 2, (R)-2-Amino-1,4-dihydro-6-methyl-4-(3-nitro-phenyl)-3,5-pyridinedicarboxylic Acid 3-(1-diphenylmethyl-azetidin-3-yl) Ester 5-isopropyl Ester Dihydrobromide dihydrate] | 230 ng/mL | 1930 ng·h/mL | 94.2% | 99.8% | 92.1% | 95.5% | 99.8% | – | – | Residual rate of Compound (I) (%) ([2]; Condition (1): closed state, 60° C., 1 month, listed as Example 2A, Dihydrobromide dihydrate): 99.7%; Residual rate of Compound (I) (%) ([2]; Condition (1): closed state, 60° C., 1 week, listed as Example 2A, Dihydrobromide dihydrate): 99.8%; Residual rate of Compound (I) (%) ([2]; Condition (1): closed state, 60° C., 1 week, listed as Example 2C, Dihydrobromide dihydrate): 95.0%; Residual rate of Compound (I) (%) ([2]; Condition (1): closed state, 60° C., 3 months, listed as Example 2A, Dihydrobromide dihydrate): 99.7%; Residual rate of Compound (I) (%) ([2]; Condition (1): closed state, 60° C., 3 months, listed as Example 2C, Dihydrobromide dihydrate): 94.5%; Residual rate of Compound (I) (%) ([2]; Condition (1): closed state, 60° C., time 0, listed as Example 2C, Dihydrobromide dihydrate): 99.1%; Residual rate of Compound (I) (%) ([2]; Condition (2): non-closed state, 40° C., humidity 75%, 1 month, listed as Example 2A, Dihydrobromide dihydrate): 99.6%; Residual rate of Compound (I) (%) ([2]; Condition (2): non-closed state, 40° C., humidity 75%, 1 week, listed as Example 2A, Dihydrobromide dihydrate): 99.7%; Residual rate of Compound (I) (%) ([2]; Condition (2): non-closed state, 40° C., humidity 75%, 3 months, listed as Example 2A, Dihydrobromide dihydrate): 99.4%; Residual rate of Compound (I) (%) ([2]; Condition (2): non-closed state, 40° C., humidity 75%, 3 months, listed as Example 2C, Dihydrobromide dihydrate): 90.6%; Residual rate of Compound (I) (%) ([2]; Condition (2): non-closed state, 40° C., humidity 75%, time 0, listed as Example 2C, Dihydrobromide dihydrate): 99.1% |
| CC1=C(C(=O)OC(C)C)[C@@H](c2cccc([N+](=O)[O-])c2)C(C(=O)OC2CN(C(c3ccccc3)c3ccccc3)C2)=C(N)N1.O=S(=O)(O)O [Comparative Example 2, (R)-2-Amino-1,4-dihydro-6-methyl-4-(3-nitrophenyl)-3,5-pyridinedicarboxylic Acid 3-(1-diphenylmethylazetidin-3-yl) Ester 5-isopropyl Ester Monosulfate, reference compound] | – | – | 24.3% | 93.1% | – | 8.9% | 93.1% | 25.0% | – | – |
| (R)-2-Amino-1,4-dihydro-6-methyl-4-(3-nitrophenyl)-3,5-pyridinedicarboxylic acid 3-(1-diphenylmethylazetidin-3-yl) ester 5-isopropyl Ester Disulfate Dihydrate [Comparative Example 1, reference compound] | – | – | 0.4% | 99.3% | 84.4% | 96.8% | 99.3% | 68.0% | – | – |
| CC1=C(C(=O)OC(C)C)[C@@H](c2cccc([N+](=O)[O-])c2)C(C(=O)OC2CN(C(c3ccccc3)c3ccccc3)C2)=C(N)N1.CS(=O)(=O)O.CS(=O)(=O)O [Comparative Example 3, (R)-2-Amino-1,4-dihydro-6-methyl-4-(3-nitrophenyl)-3,5-pyridinedicarboxylic Acid 3-(1-diphenylmethylazetidin-3-yl) Ester 5-isopropyl Ester Dimethanesulfonate, reference compound] | – | – | 90.0% | 99.3% | 0.0% | 0.1% | 99.3% | 93.2% | 84.1% | – |
| CC1=C(C(=O)OC(C)C)[C@@H](c2cccc([N+](=O)[O-])c2)C(C(=O)OC2CN(C(c3ccccc3)c3ccccc3)C2)=C(N)N1 [Comparative Example 4, (R)-2-Amino-1,4-dihydro-6-methyl-4-(3-nitrophenyl)-3,5-pyridinedicarboxylic Acid 3-(1-diphenylmethylazetidin-3-yl) Ester 5-isopropyl Ester, reference compound] | 161 ng/mL | 1500 ng·h/mL | – | – | – | – | – | – | – | – |
| CC1=C(C(=O)OC(C)C)[C@@H](c2cccc([N+](=O)[O-])c2)C(C(=O)OC2CN(C(c3ccccc3)c3ccccc3)C2)=C(N)N1.Cl.Cl.O.O [Example 1, (R)-2-Amino-1,4-dihydro-6-methyl-4-(3-nitro-phenyl)-3,5-pyridinedicarboxylic Acid 3-(1-diphenylmethyl-azetidin-3-yl) Ester 5-isopropyl Ester Dihydrochloride dihydrate] | 168 ng/mL | 1660 ng·h/mL | 95.3% | 99.4% | 96.0% | 97.8% | 99.4% | 96.6% | 92.0% | Residual rate of Compound (I) (%) ([2]; Condition (2): non-closed state, 40° C., humidity 75%, 3 months): 94.1% |

From patent US20090170826A1, “Acid Addition Salt of Optically Active Dihydropyridine Derivative” (Daiichi Sankyo Company ,Limited, priority 2005, published 2009)
